This is an account of results in patent US9498507B2, “Antiviral composition” (Piramal Enterprises Limited, priority 2011, dated 2016).

The test system of experiment [1] is HSV-1. The experiment in a line: Primary antiviral screening, CPE inhibition assay (crystal violet staining method). The experiment is classed as cell-based. The following applies: Human alphaherpesvirus 1. As for the experimental part:
(§1) The assay was done as reported in Indian J. Med. Res., 2004, 120:24-29 incorporated herein by reference for its procedure.
(§2) Vero cells (obtained in step 1 of Example 8) were propagated at a density of 1×10^4 cells/well in 96 well plate and incubated at 37° C. in a CO2 incubator for 24 hours to form a monolayer. Samples 1 to 26 were tested by adding at 50 μg/mL and 100 μg/mL concentration (DMSO stock of 20 mg/mL of the extract was diluted to 50 μg/mL and 100 μg/mL with DMEM containing 2% FBS) in a final culture volume of 200 μL/well. Appropriate controls were included such as Vero cells alone (cell control), Vero cells with virus (virus control) and Vero cells with virus and the standard compound, acyclovir (a commercially available antiviral drug). Acyclovir was tested at the following concentrations (DMSO stock of 20 mg/mL of acyclovir was diluted to 100 μg/mL with DMEM containing 2% FBS): 12.5 μg/mL, 6.25 μg/mL, 3.125 μg/mL, 1.5 μg/mL and 0.78 μg/mL against HSV-1 and 25 μg/mL, 12.5 μg/mL, 6.25 μg/mL and 3.125 μg/mL against HSV-2. The extracts to be assayed were added 1 hour prior to infection to provide maximum sensitivity and give a tentative idea of potential inhibitors of early replicative steps such as adsorption or penetration. After one hour, cells were infected with 100 μL of appropriate viral dose per well [HSV-1 at a multiplicity of infection (MOI) of 10^4 TCID50 or HSV-2 at a MOI of 10^3 TCID50] using viral stock obtained in step 2 of Example 8. The infected cells were incubated with maintenance medium (DMEM with 2% FBS) for another 48 to 50 hours. […] The staining solution was aspirated out and the plates rinsed using distilled water until all excess stain was washed away. The plates were allowed to dry for 24 hours. CPE was evaluated visually, after staining the plaques, and microscopically and graded according to the percentage of CPE inhibition as compared to controls.

In experiment [2] the test system is HSV-2. Described as above. The experiment is classed as cell-based. The following applies: Human alphaherpesvirus 2. As for the experimental part:
as §1, §2

Experiment [3] has as its system HSV-1. The experiment in a line: Effect on replication at different time points post-infection (MTT). Format: cell-based. The procedure: (§3) These stages occur at different time points in the virus life cycle spanning from 1 hour—initiation of adsorption to 24 hours—completion of one HSV replication cycle. Adsorption stage of the virus life cycle is the initial attachment of the herpes virus to host cells which involves interaction of gC and gD (conserved glycoproteins) on the virus with cell surface receptors such as heparin sulfate. Attachment stage of the virus life cycle is the stable attachment which allows close association of virus with the cell. The stage of the virus life cycle subsequent to the adsorption and attachment stages is known as the post infection stage. Vero cells were seeded onto 96-well flat-bottomed plates at a density of 2.2×10^4 cells/well in 10% FBS-DMEM growth medium. After 20-24 hours, the confluent monolayers were infected with 100 μL/well of 1:10^4 virus dilution (HSV-1 clinical strain) (TCID50 5.88×10^6/mL) or 1:10^3 dilution of HSV-2 (TCID50 2.43×10^6/mL) and plates incubated for 1 hour at 37° C. and 5% CO2. […] Maintenance medium was added to the wells for virus control (virus dilution+maintenance medium) and cell control (maintenance medium only). The plates were further incubated for 48-50 hours at 37° C. […] The plate was left in the 37° C., 5% CO2 incubator overnight. After incubation, the plate cover was removed and absorbance measured in each well at 570 nm in the microplate plate reader (BIO-TEK, Synergy HT).

Experiment [4] concerns HSV-2. The description is as above. The experiment is classed as cell-based. The procedure:
as §3

Experiment [5] has as its system HSV-1. The experiment is described as follows: Antiviral activity prior to infection (pre-treatment plaque assay). Format: cell-based. The note with it: 3.125-400 μg/mL. The procedure: (§4) In order for herpes viruses to enter a target cell, they must fuse their lipid membrane envelope with the lipid membrane of the cell. This complex viral entry mechanism is mediated by at least three conserved glycoprotein's (gC, gB and gD) and their ability to bind cell surface receptors such as nectins and herpes virus entry mediator (HVEM) (Cell. Mol. Life Sci, 2008, 65, 1653-1668). […] Vero cells were seeded onto 24 well plates at a density of 1.8×10^5 cells/well. […] Following incubation, the plates were washed with 0.85% saline and stained with 0.13% crystal violet.

The test system of experiment [6] is HSV-2. The description is as above. The following applies: 3.125-400 μg/mL. The experiment is classed as cell-based. As for the experimental part:
as §4

The subject of experiment [7] is HSV-1. The experiment in a line: Virus penetration assay. Format: cell-based. The following applies: compared to sample 23 of Example 4. The procedure: (§5) Penetration of HSV into host cells may be defined as a step subsequent to initial binding to the host cell surface which triggers fusion of the virion envelope with the plasma membrane. This requires multiple interactions, in a cascade like manner, involving various glycoproteins (gB, gD and gH/gL) and cell surface components (Cell. Mol. Life Sci, 2008, 65, 1653-1668). […] Vero cells were seeded onto 24 well plates at a density of 1.8×10^5 cells/well. […] The cells were incubated at 4° C. for 2 hours to allow viral attachment. […] The plates were then washed with 0.85% saline and stained with 0.13% crystal violet.

Experiment [8] has as its system HSV-2. The experiment is described as follows: Virus penetration assay. Format: cell-based. The following applies: compared to sample 23 of Example 4. The procedure:
as §5

In experiment [9] the test system is HSV-1. The experiment is described as follows: Virucidal activity assay. Format: cell-based. The note with it: 25-400 μg/mL. An excerpt: (§6) In the virucidal assay, the continuous presence of an antiviral drug may be frequently required for blocking infectivity of viral particle for cultured cells and dilution of the virus-extract complexes may dissociate, releasing infectious virus (Antiviral research, 2010, 86, 196-203). If a sample is unable to reduce virus infectivity at the IC50 or other potent concentrations then the antiviral activity is not related to its virucidal ability. […] HSV-1 virus suspension at a concentration of approximately 10^10 pfu/mL and HSV-2 at 10^9 pfu/ml were prepared. […] These admixtures were then diluted […] (1:100) to yield a final concentration range of 0.25-4 μg/ml corresponding to 25-400 μg/ml.

Experiment [10] deals with HSV-2. The experiment in a line: Virucidal activity assay. The note with it: 25-400 μg/mL. Format: cell-based.
Excerpt: as §6

The test system of experiment [11] is HSV-1. The experiment in a line: Mouse HSV-1 zosteriform spread infection model. Format: in vivo, Balb/c female mice. The note with it: acyclovir 225 mg/kg/day topical. An excerpt:
The assay was done as reported in Antimicrobial Agents and Chemotherapy, June 2002, p. 1766-1772, incorporated herein by reference for its procedure.
Balb/c female mice of 6 to 8 weeks which are non-pregnant and nulliparous were used for the study. All the animals were shaved on right mid dorsal area using electric hair clipper and few horizontal scarification was done on shaved area using sterile 26 gauge needle, just before viral challenge.
Prior to viral challenge, the scarified area of each mouse was cleaned with a cotton swab soaked in 70% alcohol followed by clearing the area using cotton swab soaked in sterile DMEM. Mice were then infected onto the scarified area with HSV-1 virus containing 8.27×10^3 pfu/animal. […]
The following formulations, as described in Example 6, were evaluated: • (a) Formulation IA • (b) Formulation IB • (c) Formulation IC
Formulation IA, Formulation IB and Formulation IC were applied topically thrice daily for a 5 day period. 15 mg of Formulation IA correspond to 225 mg/kg dose; 15 mg of Formulation IB correspond to 450 mg/kg dose; 15 mg of Formulation IC correspond to 675 mg/kg dose and 25 mg of Formulation IB correspond to 750 mg/kg dose evaluated in the animals.
The animals were assessed daily for morbidity, mortality and the site of infection for a period of 21 days post infection. […]

Experiment [12] has as its system HSV-2. The experiment is described as follows: Mouse vaginal model of HSV-2 infection. Format: in vivo, Balb/c female mice. The following applies: acyclovir 225 mg/kg/day intravaginal. The procedure: The assay was done as reported in Antiviral Research, 2006, 69:77-85, incorporated herein by reference for its procedure.
Balb/c female mice of 6 to 8 weeks, non-pregnant and nulliparous were used for the study. Female BALB/c mice were used for vaginal inoculation with HSV-2. Five days prior to intravaginal (IVAG) challenge, mice were injected subcutaneously (sc) with 2 mg of progesterone (Depo-Provera®; Pfizer, Belgium) in the upper back, using a 29-gauge needle. On the day of challenge, mice were inoculated intravaginally with 1.14×10^5 pfu of HSV-2. IVAG administrations of virus were via a micropipette in a total volume of 20 μL DMEM. Animals received Formulation IA, Formulation IB, Formulation IC/acyclovir/placebo intravaginally by topical administration 30 minutes post infection. […]
The following formulations, as described in Example 6, have been evaluated: • (a) Formulation IA • (b) Formulation IB • (c) Formulation IC
Formulation IA, Formulation IB and Formulation IC were applied topically thrice daily for a 5 day period. 15 mg of Formulation IA correspond to 225 mg/kg dose; 15 mg of Formulation IB correspond to 450 mg/kg dose and 15 mg of Formulation IC correspond to 675 mg/kg dose evaluated in the animals.
The animals were assessed daily for extravaginal disease signs and survival for a period of 21 days post infection. […]

Consider `Nc1nc2c(ncn2COCCO)c(=O)[nH]1` [Acyclovir], for which the inhibition at 0.78 µg/mL with HSV-1 [1] (0.78 μg/mL) was in the range of 11 to 25%. In the experiment on HSV-1 [1] (1.5 μg/mL), this compound yielded an inhibition at 1.5 µg/mL of 26 to 50%. For the same compound, the inhibition at 3.125 µg/mL lay in the range of 51 to 75% in the experiment on HSV-1 [1] (3.125 μg/mL) and 11 to 25% in the experiment on HSV-2 [2] (3.125 μg/mL). Besides, the inhibition at 6.25 µg/mL with HSV-1 [1] (6.25 μg/mL) lay in the range of 51 to 75%; with HSV-2 [2] (6.25 μg/mL), 26 to 50%. The inhibition at 12.5 µg/mL in the experiment on HSV-1 [1] (12.5 μg/mL) was 76 to 100%; in the experiment with HSV-2 [2] (12.5 μg/mL), 51 to 75%. This compound gave an inhibition at 25 µg/mL in the experiment on HSV-2 [2] (25 μg/mL) of 76 to 100%. Moreover, the antiviral effect result with HSV-1 [3] (3.125-200 μg/mL, 0-7 hours) is reported as “potent antiviral effect”; in the experiment with HSV-1 [3] (16-24 hours), “about 17%”; in the experiment on HSV-2 [4] (3.125-200 μg/mL, 0-7 hours) it was “potent antiviral effect”; in the experiment on HSV-2 [4] (16-24 hours p.i.), “absent”. Moreover, in the experiment with HSV-1 [5], the “inhibitory effect against HSV-1 prior to infection” value is recorded as 10-40%. Also, the “inhibitory effect against HSV-2 prior to infection” value with HSV-2 [6] was 10-20%. The “inhibitory activity (penetration)” value in the experiment with HSV-1 [7] and in the experiment on HSV-2 [8] was “weak to moderate inhibitory activity” each time. For the same compound, the “virucidal effect against HSV-1” value in the experiment on HSV-1 [9] is given as 0-32%. Besides, the “virucidal effect against HSV-2” value in the experiment with HSV-2 [10] was 11-38%. In addition, the mortality entry with HSV-1 [11] and in the experiment with HSV-2 [12] was “None of the mice died” in each case. Moreover, in the experiment on HSV-1 [11], the “recovery of all mice from zosteriform lesions” value is ≤ 7 day, post infection. Also, the “signs of extravaginal disease” value in the experiment on HSV-2 [12] was “None of the mice showed signs of extravaginal disease”.
